The source of these data is a melting point compilation (Tetko et al.; mined from patent text by program, amines drawn as free bases though some values may be those of a salt).

What is called melting point is the temperature, or range, at which the solid turns liquid.

Structures are written as SMILES.

Take `CCCCc1nc(Cl)c(CC(=O)O)c(Cc2ccc(C(=O)O)cc2)n1`: the melting point is 205 °C.

On to `CCn1cc(C(=O)O)c(=O)c2cc(F)c(N3CC(C)C(CN)C3)cc21` (stereo unspecified), for which the melting point is 245 to 248 °C.

`CCCCCNC(=O)n1nc(Oc2ncc(C(F)(F)F)cc2Cl)c(Cl)c1C`: the melting point was in the range of 76 to 78 °C.

Compound `CCOC(=O)C1=Cc2cc(-c3ccc(OC(F)(F)F)cc3)ccc2OCC1` registered a melting point of 59 to 63 °C.

For the compound `Cc1nc(N2CCN(Cc3ccc(OC(F)(F)F)cc3)C2=O)sc1C(=O)NCc1ccccc1`, the melting point was in the range of 197 to 198 °C.

On to `CCCc1c(C(=O)C(C)C)c2ccc(C(N)=O)cc2n1Cc1ccc(Br)cc1F`, for which the melting point was in the range of 197 to 198 °C.

Compound `Clc1ccc(C2COCCS2)cc1Cl` (stereo unspecified) had a melting point of 65 to 68 °C.

On to `NC(=O)C1CCN(Cc2ccc(-c3cc4ncnc(Nc5ccc6[nH]ccc6c5)c4s3)cc2)CC1`, for which the melting point is 198 to 205 °C.

`COC/C=C(C)/C=C/C(F)=C(C)/C=C/c1c(C)sc(C)c1C` returned a melting point of 117 to 118 °C.

With `O=C1NC(N2CCN(c3cnccn3)CC2)c2ccccc21` (stereo unspecified), the melting point fell in the range of 242 to 246 °C.

`COC(=O)C1(c2cc(C#N)ccc2O)CCCC1` came in with a melting point of 113 to 118 °C.

For `CN(C)C(=O)Cc1c(-c2ccccc2)nn2cccnc12`, the melting point lay within 156 to 158 °C.

`COc1ccc(CNC(=O)C(Cc2ccccc2)NC(=O)Nc2n[nH]c(=S)s2)cc1OC` (stereo unspecified) returned a melting point of 207 to 210 °C.

In turn, `Oc1ccccc1C=Nc1cccc(Cl)c1Cl` displayed a melting point of 89 to 90 °C.

On to `CCOC(=O)C(=O)Nc1ccc2c(c1)-n1cc(C(=O)OC)nc1CO2`, for which the melting point was 186 to 188 °C.

`NS(=O)(=O)c1cc2[nH]c(CO)nc2cc1Cl`: the melting point was in the range of 247 to 250 °C.

In turn, `COc1ccc(C(=O)Nc2nc3ccc(N(C)C)cc3c(N=Cc3ccccc3)c2C#N)cc1` returned a melting point of 185 °C.

In turn, `COc1cc2ncnc(N3CCN(C(=O)NCc4cnc(C)cn4)CC3)c2cc1OC` came in with a melting point of 202 to 204 °C.

Take `CN(C)C(=O)COc1ccc2c(-c3ccc(Br)cc3)nsc2c1`: the melting point amounted to 159 °C.

Compound `CC(=O)Oc1c2cc(C(F)(F)F)c(C(F)(F)F)cc2c(OC(C)=O)c2cc3ccccc3cc12` yielded a melting point of 149 to 153 °C.

Take `O=C1c2ccccc2C(=O)N1OCc1nc(=O)c(O)c[nH]1`: the melting point is 174 to 175 °C.

As for `CC(C)(C)OC(=O)NC1CCc2ccccc2C(F)C1=O` (stereo unspecified), the melting point was 127 to 129 °C.

The compound `CC(C)c1nc(CN2C(=O)C3(COc4cc5c(cc43)OCO5)c3ccccc32)co1` (stereo unspecified) gave a melting point of 118 to 120 °C.

Compound `CCC(C)C(NC(=O)OC)C(=O)NC(Cc1ccccc1)C(O)CN(Cc1ccc(-c2cncs2)cc1)NC(=O)OC(C)(C)C` (stereo unspecified) had a melting point of 163 to 166 °C.

`COC(=O)C(=CNc1ccsc1C(=O)O)SC` showed a melting point of 179 to 180 °C.

For `O=C1CCC(N2Cc3cc(CNC(=O)Nc4ccc(-c5ncc[nH]5)cc4)ccc3C2=O)C(=O)N1` (stereo unspecified), the melting point lay within 190 to 192 °C.

`CC#CC(C)(C)NC(=O)C(Oc1cc(Cl)nc(Cl)c1)SC` (stereo unspecified): the melting point was 141 to 142 °C.

`Cc1cc2c(s1)Oc1ccc(Cl)cc1NC2=O` displayed a melting point of 250 to 253 °C.

In the case of `C=C(C)n1c(=O)n(CC2CN(Cc3ccccc3)CCO2)c2ccccc21` (stereo unspecified), the melting point was determined as 117 °C.

On to `COc1ccc(CN2CCNCC2)cc1`, for which the melting point is 99 to 101 °C.

In turn, `Cc1cnc2c(NC(=O)c3c(Cl)cccc3Cl)ccc(C)c2c1-n1ccnc1` showed a melting point of 214 to 216 °C.

`O=[N+]([O-])c1cn2c(n1)O[C@@H](CN1CCN(Cc3ccc(C(F)(F)F)cc3)CC1)C2` had a melting point of 149 to 150 °C.

In turn, `Cc1nnc(-c2ccc3occ(-c4cccc(OC(F)(F)F)c4)c3c2)o1` showed a melting point of 110 to 111 °C.

`CC1(C)CC(N2CCCCCC2=O)CC(C)(C)N1` gave a melting point of 113 to 117 °C.

For the compound `CCOC(=O)c1cc([N+](=O)[O-])cc(Br)c1O`, the melting point was found to be 108 °C.

With `Cc1cc2c(cc1O)C(C1(c3ccccn3)CC1)N(C)CC2` (stereo unspecified), the melting point was determined as 218 °C.

For `CCOC(=O)Oc1cc(C(C)(C)C)oc(=O)c1-c1c(C)cc(C)cc1C`, the melting point was 92 to 94 °C.

As for `Nc1ncc(-c2noc(-c3cnn4c(C(F)(F)F)cc(-c5ccc(C(F)(F)F)c(Cl)c5)nc34)n2)cn1`, the melting point worked out at 279 °C.

On to `CCOc1ccc(OCC(F)(F)F)cc1C(=O)O`, for which the melting point lay in the range of 101 to 103 °C.

The compound `CC(C(=O)NCC(F)(F)C(F)(F)F)C(=O)NC1C(=O)N(C)c2c(F)cccc2OC1C` (stereo unspecified) gave a melting point of 126 to 134 °C.

`CS(=O)(=O)c1ccc(-n2nc(C(F)(F)F)cc2-c2nc3c(F)cccc3s2)cc1` displayed a melting point of 208 to 209 °C.

Take `COC(=O)C1=C(C)NC(C)=C(C#N)C1c1cccc(N)c1` (stereo unspecified): the melting point lay in the range of 234 to 235 °C.

In the case of `c1ccc(C(CCc2c[nH]cn2)c2ccccc2)cc1`, the melting point was 115 to 117 °C.

The compound `CCOC(=O)C(=NOC(C)(C)C(=O)OC(C)(C)C)c1csc(NC(c2ccccc2)(c2ccccc2)c2ccccc2)n1` showed a melting point of 124 to 125 °C.

In turn, `O=C(Nc1cccc(S(=O)(=O)N2CCCC2)c1)c1cnn2c(C(F)(F)F)cc(-c3ccc(Cl)c(Cl)c3)nc12` gave a melting point of 280 °C.

In the case of `CC(=NOCCOc1ccc(CC2SC(=O)NC2=O)cc1)c1ccc(S(=O)(=O)c2ccncc2)cc1` (stereo unspecified), the melting point fell in the range of 213 to 215 °C.

Regarding `COCCOC(=O)Nc1cccc(C)c1COc1cccn2c(CO)c(C)nc12`, the melting point lay within 121 to 123 °C.

In turn, `Cc1cccc(-n2ccc(=O)c(-c3ccnn3-c3ccccc3)n2)c1` showed a melting point of 115 to 116 °C.

In the case of `CCCCCC(c1ccccc1C(F)(F)F)C(C(N)=O)c1cc(C(=O)O)ccc1C(C)(C)C` (stereo unspecified), the melting point was 199 to 200 °C.

`Cc1nc2ccc3c(c2o1)O[C@@H](CN[C@H]1CC[C@@H](c2c[nH]c4ccc(F)cc42)CC1)CO3` had a melting point of 80 to 82 °C.

As for `O=C(O)C[C@@H](c1cc(F)cc(F)c1)C(F)(F)F`, the melting point was 73 to 75 °C.

Turning to `CCOC(=O)C1=C(C)NC(c2cscn2)=NC1c1ccc(O)cc1` (stereo unspecified), the melting point was in the range of 213 to 216 °C.

`COCc1sc(C(C)(O)c2ccsc2)nc1C` (stereo unspecified) registered a melting point of 71 to 73 °C.

Take `COC(=O)C(=O)CC(=O)c1ccc(Cc2ccc(Cl)c(Cl)c2)cc1`: the melting point is 104 to 106 °C.

In the case of `CS(=O)(=O)c1ccc(-c2cc(/C=C/CO)nn2CC2CCCCC2)cc1`, the melting point is 49 to 52 °C.

Regarding `O=C(O)c1cnc2cc(OCc3ccccc3)c(OCc3ccccc3)cn2c1=O`, the melting point stood at 208 °C.

For `O=C(NCCCc1ccc(CO)cc1)c1ccc(-c2ccccn2)cc1`, the melting point lay in the range of 118 to 120 °C.

`O=C(Nc1ccc(C(=O)N2Cc3ccccc3Cc3ccccc32)cc1)c1cccc(Cl)c1Cl` yielded a melting point of 225 to 230 °C.

`CC(C)=CCN(c1ccc(OCc2ccccc2)cc1)C1CCN(C(=O)C2CN(C)CCN2CCC(C)C)CC1` (stereo unspecified) yielded a melting point of 85 to 86 °C.

As for `Cc1coc(Cc2ccc([N+](=O)[O-])cc2)n1`, the melting point lay within 67 to 68 °C.

On to `Nc1ncnc2c1c(-c1ccccc1Cl)cn2-c1ccccc1`, for which the melting point lay within 175 to 176 °C.

`Nn1c(=O)c(-c2cccs2)nc2ccccc21` gave a melting point of 164 °C.

On to `Nc1ccc2c(c1)C(C(=O)Oc1ccccc1)CCC2` (stereo unspecified), for which the melting point was in the range of 89 to 90 °C.

The compound `C=C(C1=C(CCC(=O)OC)C(=O)CC1OC(C)=O)c1ccccc1` (stereo unspecified) gave a melting point of 78 to 79 °C.

In turn, `O=C(O)COc1ccc(OCCC2CCN(c3ccncc3)CC2)cc1` yielded a melting point of 247 to 249 °C.

`Cc1cccc(NC(=O)Nc2ccc(-c3c(C(C)C)sc4ncnc(N)c34)cc2)c1` showed a melting point of 169 to 171 °C.

With `CCCCCn1ncc(C#N)c1N`, the melting point fell in the range of 143 to 144 °C.

Regarding `O=C(Cc1ccc([N+](=O)[O-])cc1C(=O)O)Nc1cccc(/C=C/c2nc(C3CCC3)cs2)c1`, the melting point was 233 to 235 °C.

Take `CN(Cc1ccc(Cl)cc1)S(=O)(=O)c1cn(S(=O)(=O)N(C)C)cn1`: the melting point was in the range of 112 to 114 °C.

In turn, `CCOC(=O)c1ncc2[nH]c3ccc([N+](=O)[O-])cc3c2c1C` showed a melting point of 272 to 275 °C.

Compound `Cc1cc(Br)cc(Br)c1NC(=N)Nc1c(C)cc([N+](=O)[O-])cc1Br` displayed a melting point of 193 to 195 °C.

Turning to `Cn1ncsc1=NC(=S)Nc1ccccc1`, the melting point fell in the range of 174 to 175 °C.

`Nc1cc(OCc2ccccc2)ccc1C=C(Br)Br` registered a melting point of 93 to 94 °C.

Compound `O=C(Nc1ccc2ccc(Cl)nc2n1)c1ccc(Cl)s1` came in with a melting point of 275 °C.

`Cc1cc(-c2ccc(C(F)(F)F)cc2)cc(-c2ccnc(-c3cccc(N)c3)n2)n1` displayed a melting point of 167 °C.

For `CCOC(=O)c1cnn2c(C=O)c(Cc3cccc(F)c3C)c(-c3ccccc3)c2c1Cl`, the melting point lay within 110 to 111 °C.

Compound `COc1nc(C)cnc1N(C(=O)OCC(C)C)S(=O)(=O)c1cccnc1Cl` yielded a melting point of 99 to 101 °C.

With `Cc1ccc(NC(=O)c2cc(Cl)ccc2NCC2CCN(C3CCCCCC3)CC2)nc1`, the melting point was 159 to 161 °C.

Compound `O=C(O)Cc1ccc(NC(=O)C(COc2cccc(Cl)c2)NS(=O)(=O)c2ccc(F)cc2)cc1` (racemic) came in with a melting point of 195 to 197 °C.

Take `Cc1cccc(C(C)(C)C)c1NC(=O)NCC1(c2ccccc2)CCCCC1`: the melting point is 196 to 197 °C.

`COc1cc2c(cc1OC)N(C(=O)OCc1ccccc1)C(C)CC2=O` (stereo unspecified) registered a melting point of 128 to 130 °C.

As for `COc1ccc(Cl)cc1S(=O)(=O)Nc1onc(C)c1Br`, the melting point lay within 180 to 184 °C.

Consider `C[C@@H]1CN(c2ccc(N/C=C3\C(=O)NC(=O)c4ccc(-c5ccoc5)cc43)cc2)C[C@H](C)N1C`, for which the melting point was 204 to 205 °C.

`C=C1c2ccccc2CC(=NO)c2ccccc21` returned a melting point of 156 to 160 °C.

With `O=C(C[C@H](NC(=O)C(F)(F)F)C(=O)O)c1ccc2c(c1)Cc1ccccc1-2`, the melting point fell in the range of 111 to 115 °C.

`COc1ccc(C(=O)CCC2CCN(C(C)=O)CC2)cc1NC(=O)C(F)(F)F` gave a melting point of 77 to 79 °C.
